Where a name gives a salt, the structure may show the parent alone.

The test system of data set [1] is L929. In words: Cytotoxicity assay. The data set is classed as cell-based, mouse. As to conditions: trypan blue dye exclusion after 7 days, ± one SD.
Data set [2] relates to 143. Kind of data set: Cytotoxicity assay. The data set is classed as cell-based, human. The following applies: trypan blue dye exclusion after 7 days, ± one SD.
In data set [3] the test system is Vero. Kind of data set: Cytotoxicity assay. The data set is classed as cell-based, African green monkey. The following applies: trypan blue dye exclusion after 7 days, ± one SD.
Data set [4] has as its system BS-C-1. In words: Cytotoxicity assay. As to conditions: trypan blue dye exclusion after 7 days, ± one SD. The data set is classed as cell-based, African green monkey.
A further data set concerns Reovirus ST3. In words: Plaque reduction assay. The data set is classed as cell-based, reovirus serotype 3 (ST3) strain Dearing. The following applies: Reovirus ST3 in L929 cells, ± one SD. A general note: In a plaque reduction assay, fewer plaques than in the control indicate reduced infectivity or spread.
The test system of a further data set is Vaccinia WR. The format is cell-based, Vaccinia virus, strain WR.
For data set [5], the system named is HSV-1. Kind of data set: Plaque reduction assay. As to conditions: HSV-1 in Vero cells; ± one SD. The format is cell-based, Herpes simplex virus 1, strain GHSV-UL46.
A further data set has as its system VZV. The data set is classed as cell-based, Varicella Zoster virus, strain Ellen. As to conditions: VZV in BS-C-1 cells; ± one SD.
Data set [6] concerns L929. Kind of data set: Chemotherapeutic activity. The following applies: after 7 days, ± one SD.
Data set [7] relates to 143. In words: Chemotherapeutic activity. As to conditions: after 7 days, ± one SD.
The subject of data set [8] is Vero. Kind of data set: Chemotherapeutic activity. As to conditions: after 7 days, ± one SD.
Data set [9] concerns BS-C-1. Kind of data set: Chemotherapeutic activity. The following applies: after 7 days, ± one SD.
Data set [10] has as its system L929, 143, Vero, BS-C-1 cell lines. In words: Cell inhibition as a function of drug concentration. As to conditions: Fig. 1; cell line not specified.
Data set [11] has as its system reovirus, vaccinia, HSV-1, VZV. The format is cell-based.
Data set [12] deals with HSV-1. The following applies: cited from earlier work.
For a further data set, the system named is vaccinia. The following applies: cited from earlier work.
The next data set concerns ssRNA viruses. As to conditions: in words; cited from earlier work.

For `Nc1nc2c(ncn2COCCO)c(=O)[nH]1` [Acyclovir], the “MCC, minimum cytotoxicity concentration that causes a reduction in cell viability >10%” value in the data set with L929 [1] turned out to be 500 ± 42.0 µg/mL; in the data set on 143 [2] it was 425 ± 32.0 µg/mL; in the data set on Vero [3], 400 ± 42.0 µg/mL; in the data set on BS-C-1 [4], 440 ± 39.0 µg/mL. Further, the “MIC, minimum inhibitory concentration required to reduce virus plaque number by 50%” value was above 250 µg/mL against Reovirus ST3, above 250 µg/mL in the data set on Reovirus ST3 (listed as acyclovir), above 200 µg/mL against Vaccinia WR and “about 0.08 μg/mL” against HSV-1 [5].
Turning to `N.N.[Cl][Pt][Cl]` [Cisplatin], the “MIC, minimum inhibitory concentration required to reduce virus plaque number by 50%” value against Reovirus ST3, in the data set on Vaccinia WR, in the data set on HSV-1 [5] and in the data set with VZV was above 25 µg/mL throughout. Moreover, the “GI50 (50% reduction in cell growth)” value in the data set on L929 [6] is 75 ± 6.0 µg/mL; with 143 [7], 50 ± 4.0 µg/mL; with Vero [8], 50 ± 4.0 µg/mL; in the data set with BS-C-1 [9], 50 ± 3.0 µg/mL. Also, the GI50 entry in [10] is “about 50 μg/mL”.
With `[Cl][Pt-2]([Cl])([Cl])[Cl].[K+].[K+]` [Compound K2PtCl4, potassium tetrachloroplatinate(II)], the “MCC, minimum cytotoxicity concentration that causes a reduction in cell viability >10%” value in the data set with L929 [1] came out at 100 ± 9.0 µg/mL; in the data set with 143 [2] it was 75 ± 6.0 µg/mL; in the data set on Vero [3], 100 ± 9.0 µg/mL; with BS-C-1 [4], 75 ± 6.0 µg/mL. The “MIC, minimum inhibitory concentration required to reduce virus plaque number by 50%” value in the data set on Reovirus ST3 was above 100 µg/mL; in the data set on Vaccinia WR, above 75 µg/mL; against HSV-1 [5], above 100 µg/mL; against VZV, above 75 µg/mL. In addition, in [11], the “inhibition of the tested viruses” value is “little inhibition”. Moreover, the “GI50 (50% reduction in cell growth)” value with L929 [6] came out at 200 ± 20.0 µg/mL; in the data set on 143 [7], 175 ± 12.0 µg/mL; in the data set with Vero [8], 200 ± 16.0 µg/mL; in the data set with BS-C-1 [9], 175 ± 20.0 µg/mL.
Regarding `CCN(CC)CCOc1ccc2c(c1)C(=O)c1cc(OCCN(CC)CC)ccc1-2` [Tilorone hydrochloride, 2,7-bis[2-(9-diethylamino)ethoxy]-9H-fluorene-9-one], the “concentration shown to inhibit HSV-1” value with HSV-1 [12] was 10 µg/mL. In addition, the “concentration shown to inhibit vaccinia” value in the data set with vaccinia is 10 µg/mL. In addition, the “antiviral activity against ssRNA viruses” value in the data set with ssRNA viruses is “no antiviral activity”.
